# Measured values reported in patent US9745305B2, “Modulators of methyl modifying enzymes, compositions and uses thereof” (Constellation Pharmaceuticals, Inc., priority 2013, dated 2017).
# Assays:
# [1] = target: EZH2 (Homo sapiens, UniProt Q15910); assay: EZH2 Assay (3H SAM methyl transfer, rPRC2, FlashPlate); assay type: biochemical; conditions: rPRC2, biotinylated oligonucleosomes, 0.2 μM 3H SAM, 2 nM EZH2
# Method: (§1) EZH2 Assay: Assays were carried out by mixing rPRC2 together with biotinylated oligonucleosome substrates in the presence of the radio-labeled enzyme co-factor, S-adenosyl-L-methionine (^3H SAM) (Perkin Elmer) and monitoring the enzymatically mediated transfer of tritiated methyl groups from ^3H SAM to histone lysine residues. The amount of resulting tritiated methyl histone product was measured by first capturing the biotinylated oligonucleosomes in streptavidin (SAV) coated FlashPlates (Perkin Elmer), followed by a wash step to remove unreacted ^3H SAM, and then counting on a TopCount NXT 384 well plate scintillation counter (Perkin Elmer). The final assay conditions for EZH2 were as follows: 50 mM Tris Buffer pH 8.5, 1 mM DTT, 69 μM Brij-35 detergent, 5.0 mM MgCl2, 0.1 mg/mL BSA, 0.2 μM ^3H SAM, 0.2 μM biotinylated oligonucleosomes, 3.6 μM H3K27me3 peptide and 2 nM EZH2.
# (§2) Compound IC50 measurements were obtained as follows: Compounds were first dissolved in 100% DMSO as 10 mM stock solutions. Ten point dose response curves were generated by dispensing varying amounts of the 10 mM compound solution in 10 wells of the 384 well plate (Echo; Labcyte), pure DMSO was then used to backfill the wells to insure all wells have the same amount of DMSO. A 12.5 μL volume of the HMT enzyme, H3K27me3 peptide and oligonucleosome substrate in assay buffer was added to each well of the assay plate using a Multidrop Combi (ThermoFisher). Compounds were pre-incubated with the enzyme for 20 min, followed by initiation of the methyltransferase reaction by addition of 12.5 μL of ^3H SAM in assay buffer (final volume=25 μL). The final concentrations of compounds ranged from a top default concentration of 80 μM down to 0.16 μM in ten 2-fold dilution steps. Reactions were carried out for 60 minutes and quenched with 20 μL per well of 1.96 mM SAH, 50 mM Tris pH 8.5, 200 mM EDTA. Stopped reactions were transferred to SAV coated Flashplates (Perkin Elmer), incubated for 120 min, washed with a plate washer, and then read on the TopCount NXT (1.0 min/well) to measure the amount of methyl histone product formed during the reaction. The amount of methyl histone product was compared with the amount of product formed in the 0% and 100% inhibition control wells allowing the calculation of % Inhibition in the presence of the individual compounds at various concentrations. IC50's were computed using a 4 parameter fit non-linear curve fitting software package (XLFIT, part of the database package, ActivityBase (IDBS)) where the four parameters were IC50, Hill slope, pre-transitional baseline (0% INH), and post-transitional baseline (100% INH); with the latter two parameters being fixed to zero and 100%, respectively, by default.
# [2] = target: Y641N EZH2 (Homo sapiens, UniProt Q15910, Y641N); assay: Assay for Y641N EZH2 (as the EZH2 assay, H3K27Me2 oligonucleosomes as substrate); assay type: biochemical; conditions: Y641N EZH2 mutant, reconstituted H3K27Me2 oligonucleosomes as substrate
# Chain of Y641N EZH2 (Q15910 whole entry Y641N): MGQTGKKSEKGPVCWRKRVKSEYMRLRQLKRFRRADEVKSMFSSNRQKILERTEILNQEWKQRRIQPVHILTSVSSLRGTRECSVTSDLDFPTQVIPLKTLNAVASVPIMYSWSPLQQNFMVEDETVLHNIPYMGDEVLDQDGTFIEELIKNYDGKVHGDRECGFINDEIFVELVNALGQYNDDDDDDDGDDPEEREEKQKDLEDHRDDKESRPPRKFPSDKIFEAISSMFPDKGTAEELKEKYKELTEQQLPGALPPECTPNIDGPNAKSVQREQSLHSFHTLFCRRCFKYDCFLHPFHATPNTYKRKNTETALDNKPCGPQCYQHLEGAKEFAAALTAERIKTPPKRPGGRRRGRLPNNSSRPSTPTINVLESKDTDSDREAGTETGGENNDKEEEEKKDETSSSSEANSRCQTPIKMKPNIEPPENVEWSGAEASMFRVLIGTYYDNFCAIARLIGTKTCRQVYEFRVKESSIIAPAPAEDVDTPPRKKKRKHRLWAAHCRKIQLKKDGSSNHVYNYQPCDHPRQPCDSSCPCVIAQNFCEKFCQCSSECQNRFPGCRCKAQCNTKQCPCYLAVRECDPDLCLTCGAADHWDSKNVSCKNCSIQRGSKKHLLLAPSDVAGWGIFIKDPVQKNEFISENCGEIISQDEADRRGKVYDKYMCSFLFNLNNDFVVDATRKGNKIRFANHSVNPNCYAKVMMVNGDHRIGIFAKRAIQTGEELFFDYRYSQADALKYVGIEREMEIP
# Chain of Y641N EZH2 (O75530 whole entry partner): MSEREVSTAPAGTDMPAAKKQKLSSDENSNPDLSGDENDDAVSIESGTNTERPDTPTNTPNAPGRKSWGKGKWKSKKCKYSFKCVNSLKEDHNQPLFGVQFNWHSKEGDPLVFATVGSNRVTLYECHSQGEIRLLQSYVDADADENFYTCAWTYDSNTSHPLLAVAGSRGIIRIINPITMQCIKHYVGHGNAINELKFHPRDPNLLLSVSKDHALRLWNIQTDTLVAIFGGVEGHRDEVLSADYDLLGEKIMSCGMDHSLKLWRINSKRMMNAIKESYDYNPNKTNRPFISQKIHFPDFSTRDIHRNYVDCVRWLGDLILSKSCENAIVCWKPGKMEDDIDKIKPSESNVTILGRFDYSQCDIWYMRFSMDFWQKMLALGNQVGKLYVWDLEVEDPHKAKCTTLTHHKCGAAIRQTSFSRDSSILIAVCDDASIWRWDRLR
# Chain of Y641N EZH2 (Q15022 whole entry partner): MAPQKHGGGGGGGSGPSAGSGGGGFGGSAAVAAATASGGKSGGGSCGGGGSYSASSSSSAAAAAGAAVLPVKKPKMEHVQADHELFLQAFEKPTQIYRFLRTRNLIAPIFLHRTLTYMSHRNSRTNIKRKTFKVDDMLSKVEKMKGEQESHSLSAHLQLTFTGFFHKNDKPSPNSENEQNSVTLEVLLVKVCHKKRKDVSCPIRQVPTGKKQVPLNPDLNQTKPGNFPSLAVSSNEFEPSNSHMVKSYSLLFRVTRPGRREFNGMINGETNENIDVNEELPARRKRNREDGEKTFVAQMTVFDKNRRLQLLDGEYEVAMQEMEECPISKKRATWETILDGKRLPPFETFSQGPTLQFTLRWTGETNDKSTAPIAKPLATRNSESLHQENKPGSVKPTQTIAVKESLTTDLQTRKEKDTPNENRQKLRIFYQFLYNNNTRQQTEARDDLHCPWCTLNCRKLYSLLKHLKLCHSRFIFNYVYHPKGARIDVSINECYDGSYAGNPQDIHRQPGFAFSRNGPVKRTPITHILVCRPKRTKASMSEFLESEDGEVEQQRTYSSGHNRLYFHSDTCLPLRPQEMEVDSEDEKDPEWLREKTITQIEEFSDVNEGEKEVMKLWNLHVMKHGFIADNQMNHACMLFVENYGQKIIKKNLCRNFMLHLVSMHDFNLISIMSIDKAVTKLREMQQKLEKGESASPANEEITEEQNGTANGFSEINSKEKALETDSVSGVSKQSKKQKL
# Method: as §1, §2
# Assay for Y641N EZH2 was performed as above using reconstituted H3K27Me2 oligonucleosomes as substrate.
# [3] = system: H3K27me3 mark in Hela cells expressing wild type EZH2; assay: H3K27me3 MSD Hela Assay; assay type: cell-based; conditions: read-out: H3K27me3_MSD_HeLa (EC50)
# Method: H3K27me3 MSD Hela Assay. Trypsinized HeLa cells were counted and diluted in 10% DMEM (Life Technologies, Cat. #10569) to 5000 cells/75 μL. Seventy-five μL of cells were place in each well of a 96-well flat-bottomed plate and incubated at 37° C. for 4 hours. Twenty-five μL of test compound (at various concentrations) was added to the cells and incubation continued at 37° C. for 96 hours. Media was then removed and the cells rinsed once with ice cold PBS. Forty μL of ice-cold MSD Buffer AT (10 mM HEPES, pH 7.9, 5 mM MgCl2, 0.25M sucrose, Benzonase (1:10000), 1% Triton X-100 supplemented with fresh 1× Protease Inhibitor cocktail and 1 mM 4-(2-Aminoethyl)benzenesulfonyl fluoride hydrochloride (AEBSF)) was added to each well and the plates placed on ice for 30 minutes. Ten μL of 5M NaCl was then added to each well and incubation on ice continued for another 15 minutes. The material in each well was suspended pipetting up and down and then transferred to a new 96 well plate. The emptied wells were rinsed with 150 uL ice-cold 20 mM Tris pH 7.5, 1 mM EDTA, 1 mM EGTA, supplemented with fresh 1× Protease Inhibitor cocktail and 1 mM AEBSF (“NO salt NO detergent buffer) and transferred to the respective wells in the new plate. Three hundred μL of NO Salt NO detergent buffer was then added to each well of lysates and the plates frozen at −80° C.
# On the same day, an appropriate number of MSD standard bind 96-well plates were coated with 30 μL/well of total H3 capture antibody (Millipore, Cat # MAB3422) at 1 μg/mL concentration in PBS. The antibody solution was evenly distributed first by tapping gently on the sides of the plates and then by shaking the plates for a few minutes at 1000 rpm. Antibody coated plates were stored at 4° C. overnight.
# The next day the lysates are thawed to RT. The antibody coated MSD plates are washed 3× with TBS-T (Tris-buffered saline (Fisher Scientific, Cat #BP2471-1)+0.2% Tween-20). One-hundred fifty μL of 5% Blocker A in TBS-T is added to each well. The wells are covered and shaken on a shaker at RT for one hour. The Blocker A step is repeated a second time. After removing the blocker, 25 μL of cell lysate is transferred into each antibody coated well. The plates are shaken for 2 hours at RT, the lysate removed and the plates again washed with Blocker A in TBS-T. Twenty-five μL of appropriate freshly prepared antibody mix (including both primary and secondary antibodies) is added to each well and the plates shaken for 1 hour at RT.
# Both H3 antibodies were obtained from Cell Signalling (Cat #s 4499 and 9733). The goat anti-rabbit antibody was obtained from Meso-Scale Discovery (Cat #R32AB-1).
# The antibody mix was then removed and the wells washed with Blocker A. One hundred-fifty μL of freshly prepared 1×MSD Read Buffer (Meso-Scale Discovery; Cat #R927C-2) was then added to each well and the plates read on a MSD Sector 2400 Plate Reader.
# (§3) Data was analyzed using Assay Assistant (Constellation Pharmaceuticals In-house product) and Activity Base (IDBS Ltd, Surrey, UK) template. Data files were imported to Assay Assistant and assay conditions were specified. A unique Analysis ID was created and the data files exported to Activity Base. An analysis template was created on Activity Base to measure dose-dependent inhibition of H3K27me3 mark and cell viability respectively. Readout of DMSO wells were used to normalize the data. Resulting curves were fitted using Activity base software Model 205 (IDBS Ltd, Surrey, UK). The data was checked for quality, validated and integrated in excel format using SARview (IDBS Ltd, Surrey, UK).
# [4] = system: H3K27me3 mark in Hela cells expressing wild type EZH2; assay: H3K27me3 Alpha Hela Assay (AlphaLISA); assay type: cell-based; conditions: Homo sapiens, 72 hrs, read-out: H3K27me3_Alpha_HeLa (EC50)
# Method: H3K27me3 Alpha Hela Assay (AlphaLISA). Ten different doses of each test compound (in a series of 3-fold dilutions) were plated in duplicate 384-well tissue culture treated plates (Catalog #781080; Greiner Bio One; Monroe, N.C.). Hela cells grown in culture were trypsinized and counted using a Countess® cell counter (Catalog # C10281; Life Technologies, Grand Island, N.Y.). Cell were diluted to 67,000 cells per mL in 10% DMEM (Catalog #10569-010 Life Technologies, Grand Island, N.Y.) and 15 μL (1,000 cells) were plated into each well using the Biotek MicroFlo™ Select Dispenser (BioTek Instruments, Inc. Vermont, USA),) of the 384-well plate. Plates were incubated at 37° C./5% CO2 for 72 hrs. One of the duplicate plates was processed for HeLa assay and the other for viability.
# To the plate processed for AlphaLISA was added 5 μL per well Cell-Histone Lysis buffer (1×) (Catalog # AL009F1 Perkin Elmer; Waltham, Mass.) and the plate was incubated at RT for 30 minutes on a plate shaker with low speed (Model#4625-Q Thermo Scientific; Waltham, Mass.). Then, 10 μL per well Histone Extraction buffer (catalog # AL009F2; Perkin Elmer; Waltham, Mass.) was added and the plate further incubated at RT for 20 min on plate shaker with low speed. To each well was then added 10 μL per well of a 5× mix of anti-K27me3 acceptor beads plus Biotinylated anti-Histone H3 (C-ter) Antibody (diluted to 3 nM final) (Catalog #AL118 Perkin Elmer; Waltham, Mass.). Dilution of the acceptor beads and then anti-Histone H3 was with 1× Histone Detection buffer (Catalog # AL009F3 Perkin Elmer; Waltham, Mass.) which was produced diluted from the 10× stock provided. The plate was sealed with an aluminum plate sealer and incubated at 23° C. for 60 min. We then added 10 μL 5× solution of Streptavidin Donor beads (Catalog #6760002 Perkin Elmer; Waltham, Mass.) (20 μg/mL final in 1× Histone Detection Buffer), sealed the plate with Aluminum plate sealer and incubated at 23° C. for 30 min. The plates were then read using an EnVision-Alpha Reader (model #2104 Perkin Elmer; Waltham, Mass.).
# as §3, with “Data from both assays was analyzed” for “Data was analyzed”
# Chain of EZH2 (Q15910 whole entry): as the sequence (Q15910 whole entry Y641N) above, with N641Y counted along it
# Chain of EZH2 (O75530 whole entry partner): as the sequence (O75530 whole entry partner) above
# Chain of EZH2 (Q15022 whole entry partner): as the sequence (Q15022 whole entry partner) above
SMILES,IC50 [1] [µM],IC50 [2] [µM],"EC50 ([3]; Homo sapiens, HeLa, 96 h) [µM]",EC50 ([3]; 96 hours) [µM],EC50 [4] [µM]
"COc1cc(C)[nH]c(=O)c1CNC(=O)c1c(C)c(C(C)C2CC2)n2ncccc12 (racemic) [Compound 102, (±)-7-(1-cyclopropylethyl)-N-((4-methoxy-6-methyl-2-oxo-1,2-dihydropyridin-3-yl)methyl)-6-methylpyrrolo[1,2-b]pyridazine-5-carboxamide]",< 0.1,< 0.1,0.4 to 2,–,–
"COc1cc(C)[nH]c(=O)c1CNC(=O)c1c(C)c(C(C)N(C)S(C)(=O)=O)n2ncccc12 (racemic) [Compound 103, (±)-N-((4-methoxy-6-methyl-2-oxo-1,2-dihydropyridin-3-yl)methyl)-6-methyl-7-(1-(N-methylmethylsulfonamido)ethyl)pyrrolo[1,2-b]pyridazine-5-carboxamide]",< 0.1,0.1 to 1,0.4 to 2,–,–
"COc1cc(C)[nH]c(=O)c1CNC(=O)c1c(C)c(C(C)NS(C)(=O)=O)n2ncccc12 (racemic) [Compound 112, (±)-N-((4-methoxy-6-methyl-2-oxo-1,2-dihydropyridin-3-yl)methyl)-6-methyl-7-(1-(methylsulfonamido)ethyl)pyrrolo[1,2-b]pyridazine-5-carboxamide]",< 0.1,0.1 to 1,2 to 10,–,–
"COc1cc(C)[nH]c(=O)c1CNC(=O)c1c(C)c(C(C)c2cccnc2)n2ncccc12 (racemic) [Compound 113, (±)-N-((4-methoxy-6-methyl-2-oxo-1,2-dihydropyridin-3-yl)methyl)-6-methyl-7-(1-(pyridin-3-yl)ethyl)pyrrolo[1,2-b]pyridazine-5-carboxamide]",< 0.1,< 0.1,< 0.4,–,–
"COc1cc(C)[nH]c(=O)c1CNC(=O)c1c(C)c(C(C)c2ccccc2)n2ncccc12 (single isomer, unassigned) [Compound 106, (R or S)-N-((4-methoxy-6-methyl-2-oxo-1,2-dihydropyridin-3-yl)methyl)-6-methyl-7-(1-phenylethyl)pyrrolo[1,2-b]pyridazine-5-carboxamide]",–,–,–,< 0.4,–
"CCN(C(C)c1c(C)c(C(=O)NCc2c(OC)cc(C)[nH]c2=O)c2cccnn12)S(C)(=O)=O (single isomer, unassigned) [Compound 107, (R or S)-7-(1-(N-ethylmethylsulfonamido)ethyl)-N-((4-methoxy-6-methyl-2-oxo-1,2-dihydropyridin-3-yl)methyl)-6-methylpyrrolo[1,2-b]pyridazine-5-carboxamide]",< 0.1,0.1 to 1,–,2 to 10,–
"CCN(C(C)c1c(C)c(C(=O)NCc2c(OC)cc(C)[nH]c2=O)c2cccnn12)S(C)(=O)=O (single isomer, unassigned) [Compound 108, (R or S)-7-(1-(N-ethylmethylsulfonamido)ethyl)-N-((4-methoxy-6-methyl-2-oxo-1,2-dihydropyridin-3-yl)methyl)-6-methylpyrrolo[1,2-b]pyridazine-5-carboxamide]",< 0.1,0.1 to 1,–,0.4 to 2,–
"COc1cc(C)[nH]c(=O)c1CNC(=O)c1c(C)c(C(C)C2CCN(CC(C)(C)F)CC2)n2ncccc12 (stereo not shown) [Compound 144, 7-(1-(1-(2-fluoro-2-methylpropyl)piperidin-4-yl)ethyl)-N-((4-methoxy-6-methyl-2-oxo-1,2-dihydropyridin-3-yl)methyl)-6-methylpyrrolo[1,2-b]pyridazine-5-carboxamide]",< 0.1,0.1 to 1,–,–,< 0.4
